Legend:
Format in all cases: cell-based
[1] = Displacement of [3H]epibatidine from Aplysia californica AchBP V108M mutant expressed in HEK293S cells by scintillation proximity assay
[2] = Displacement of [3H]epibatidine from Aplysia californica AchBP A107M, M116L mutant expressed in HEK293S cells by scintillation proximity assay
[3] = Displacement of [3H]epibatidine from wild type Aplysia californica AchBP expressed in HEK293S cells by scintillation proximity assay
[4] = Displacement of [3H]epibatidine from Aplysia californica AchBP A107M, M116L, Y195F mutant expressed in HEK293S cells by scintillation proximity assay
[5] = Displacement of [3H]epibatidine from Aplysia californica AchBP I106M, M116L, Y195F mutant expressed in HEK293S cells by scintillation proximity assay
[6] = Displacement of [3H]epibatidine from Aplysia californica AchBP V108M, M116L, Y195F mutant expressed in HEK293S cells by scintillation proximity assay
[7] = Displacement of [3H]epibatidine from Aplysia californica AchBP I118M, M116L mutant expressed in HEK293S cells by scintillation proximity assay
[8] = Displacement of [3H]epibatidine from Aplysia californica AchBP M116L,Y195F mutant expressed in HEK293S cells by scintillation proximity assay
[9] = Displacement of [3H]epibatidine from Aplysia californica AchBP I106M, M116L mutant expressed in HEK293S cells by scintillation proximity assay
[10] = Displacement of [3H]epibatidine from Aplysia californica AchBP M116Y mutant expressed in HEK293S cells by scintillation proximity assay
[11] = Displacement of [3H]epibatidine from Aplysia californica AchBP I118M mutant expressed in HEK293S cells by scintillation proximity assay
[12] = Displacement of [3H]epibatidine from Aplysia californica AchBP A107M mutant expressed in HEK293S cells by scintillation proximity assay
[13] = Displacement of [3H]epibatidine from Aplysia californica AchBP S114M, M116L, Y195F mutant expressed in HEK293S cells by scintillation proximity assay
[14] = Displacement of [3H]epibatidine from Aplysia californica AchBP Y195F mutant expressed in HEK293S cells by scintillation proximity assay
[15] = Displacement of [3H]epibatidine from Aplysia californica AchBP M116L mutant expressed in HEK293S cells by scintillation proximity assay
[16] = Displacement of [3H]epibatidine from Aplysia californica AchBP I118M, M116L, Y195F mutant expressed in HEK293S cells by scintillation proximity assay
[17] = Displacement of [3H]epibatidine from Aplysia californica AchBP M116Y, Y195F mutant expressed in HEK293S cells by scintillation proximity assay
[18] = Displacement of [3H]epibatidine from Aplysia californica AchBP V108M, M116L mutant expressed in HEK293S cells by scintillation proximity assay
[19] = Displacement of [3H]epibatidine from Aplysia californica AchBP S114M mutant expressed in HEK293S cells by scintillation proximity assay
[20] = Displacement of [3H]epibatidine from Aplysia californica AchBP S114M, M116L mutant expressed in HEK293S cells by scintillation proximity assay

Row | SMILES | Kd [1] [nM] | Kd [2] [nM] | Kd [3] [nM] | Kd [4] [nM] | Kd [5] [nM] | Kd [6] [nM] | Kd [7] [nM] | Kd [8] [nM] | Kd [9] [nM] | Kd [10] [nM] | Kd [11] [nM] | Kd [12] [nM] | Kd [13] [nM] | Kd [14] [nM] | Kd [15] [nM] | Kd [16] [nM] | Kd [17] [nM] | Kd [18] [nM] | Kd [19] [nM] | Kd [20] [nM]
1 | N#C/N=c1\sccn1Cc1cnc(Cl)c(N=[N+]=[N-])c1 | 1.1 | 1.6 | 1.7 | 17 | 5.5 | 0.17 | 68 | 3 | 3.2 | 27 | 70 | 3 | 7.2 | 2.3 | 9.6 | 172 | 19 | 0.46 | 2 | 3
2 | [N-]=[N+]=Nc1cc(C2CC3CCC2N3)cnc1Cl (stereo not given) [AZIDOEPIBATIDINE] | 1.5 | 8.1 | 10 | 37 | 22 | 0.33 | 4.8 | 10 | 30 | 34 | 4.5 | 7.2 | 19 | 8.6 | 21 | 12 | 67 | 0.58 | 12 | 15
3 | N#C/N=c1\sccn1Cc1ccc(Cl)nc1 [THIACLOPRID OLEFIN] | 9.2 | 3 | 2.8 | 20 | 4.9 | 1.8 | 299 | 4.7 | 4.3 | 144 | 239 | 4 | 13 | 3.1 | 11 | 247 | 60 | 4.8 | 6.2 | 5.6

— ChEMBL document CHEMBL1136964, “Nicotinic agonist binding site mapped by methionine- and tyrosine-scanning coupled with azidochloropyridinyl photoaffinity labeling” (J Med Chem, 2009)
